Laboratory results: US20260265238A1, “COMPOUNDS AND PHARMACEUTICAL COMPOSITIONS THAT DEGRADE SWI/SNF-RELATED MATRIX-ASSOCIATED ACTIN-DEPENDENT REGULATOR OF CHROMATIN SUBFAMILY A” (Plexium, Inc., priority 2023, published 2026)

Columns and labels:
[1] = target: T1, SMARCA2-HiBiT HeLa cells (protein which is expressed from the SMARCA2 gene) (Homo sapiens, UniProt P51531); assay: SMARCA2 degradation assay (HiBiT-fusion HeLa cell line, 24 h, luminescence); assay type: cell-based
T1 construct: protein which is expressed from the SMARCA2 and SMARCA4 genes; host or cells: HeLa (SMARCA2-HiBiT engineered line)
Outline: (§1)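 HeLa cells carrying HiBiT-tagged SMARCA2 or SMARCA4 were seeded at 8,000 cells/well, allowed to attach overnight at 37° C., then given compounds in a 10-point dilution series (typically 10 μM to 300 pM) for 24 hours at 37° C. Remaining tagged protein was read by HiBiT lytic luminescence, and DC50s came from dose-response curves.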

[2] = target: T2, SMARCA4-HiBiT HeLa cells (protein which is expressed from the SMARCA4 gene) (Homo sapiens, UniProt P51532); assay: SMARCA4 degradation assay (HiBiT-fusion HeLa cell line, 24 h, luminescence); assay type: cell-based
T2 construct: protein which is expressed from the SMARCA2 and SMARCA4 genes; host or cells: HeLa (SMARCA4-HiBiT engineered line)
Outline: as §1

T1 sequence (P51531 whole entry, the tested form may be a part): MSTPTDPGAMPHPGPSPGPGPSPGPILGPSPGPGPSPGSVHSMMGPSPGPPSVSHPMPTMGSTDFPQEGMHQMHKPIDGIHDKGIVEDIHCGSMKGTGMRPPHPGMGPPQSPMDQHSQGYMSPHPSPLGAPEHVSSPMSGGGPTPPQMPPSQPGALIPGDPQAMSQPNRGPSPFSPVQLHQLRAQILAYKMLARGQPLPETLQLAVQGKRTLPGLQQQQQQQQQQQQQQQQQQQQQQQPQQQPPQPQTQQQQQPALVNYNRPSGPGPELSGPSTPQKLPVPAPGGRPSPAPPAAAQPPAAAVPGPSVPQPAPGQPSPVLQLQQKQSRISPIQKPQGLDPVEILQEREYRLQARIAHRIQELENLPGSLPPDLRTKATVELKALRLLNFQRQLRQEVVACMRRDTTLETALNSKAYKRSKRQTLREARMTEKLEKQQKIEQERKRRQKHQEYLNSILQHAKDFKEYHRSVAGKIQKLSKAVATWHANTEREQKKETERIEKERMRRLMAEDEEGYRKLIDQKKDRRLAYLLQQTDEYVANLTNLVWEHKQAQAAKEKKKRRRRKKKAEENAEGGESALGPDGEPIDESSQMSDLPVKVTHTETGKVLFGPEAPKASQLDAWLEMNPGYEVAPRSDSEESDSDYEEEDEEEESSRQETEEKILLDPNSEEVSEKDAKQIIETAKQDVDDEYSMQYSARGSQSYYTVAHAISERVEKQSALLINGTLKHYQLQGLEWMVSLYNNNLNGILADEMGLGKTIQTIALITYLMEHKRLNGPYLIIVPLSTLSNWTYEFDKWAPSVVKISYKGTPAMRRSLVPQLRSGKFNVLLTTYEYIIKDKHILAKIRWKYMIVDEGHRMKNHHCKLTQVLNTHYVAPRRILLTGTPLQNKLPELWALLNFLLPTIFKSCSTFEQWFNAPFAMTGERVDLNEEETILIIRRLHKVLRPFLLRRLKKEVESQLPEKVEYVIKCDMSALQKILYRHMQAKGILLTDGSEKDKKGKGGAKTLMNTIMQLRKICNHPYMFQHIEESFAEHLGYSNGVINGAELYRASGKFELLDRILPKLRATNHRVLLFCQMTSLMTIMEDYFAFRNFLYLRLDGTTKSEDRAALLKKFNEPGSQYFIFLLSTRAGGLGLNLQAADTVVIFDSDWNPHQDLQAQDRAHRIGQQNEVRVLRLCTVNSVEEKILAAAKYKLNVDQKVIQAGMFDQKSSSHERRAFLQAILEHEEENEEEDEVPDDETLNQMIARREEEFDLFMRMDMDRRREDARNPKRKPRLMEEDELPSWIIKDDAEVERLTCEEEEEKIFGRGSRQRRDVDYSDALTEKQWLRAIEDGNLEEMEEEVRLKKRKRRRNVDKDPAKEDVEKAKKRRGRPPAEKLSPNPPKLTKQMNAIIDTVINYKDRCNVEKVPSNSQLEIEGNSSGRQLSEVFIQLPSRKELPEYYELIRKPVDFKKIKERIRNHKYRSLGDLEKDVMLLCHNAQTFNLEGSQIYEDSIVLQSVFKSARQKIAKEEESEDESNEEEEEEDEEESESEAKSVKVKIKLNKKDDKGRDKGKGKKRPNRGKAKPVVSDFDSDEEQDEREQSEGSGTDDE
T2 sequence (P51532 whole entry, the tested form may be a part): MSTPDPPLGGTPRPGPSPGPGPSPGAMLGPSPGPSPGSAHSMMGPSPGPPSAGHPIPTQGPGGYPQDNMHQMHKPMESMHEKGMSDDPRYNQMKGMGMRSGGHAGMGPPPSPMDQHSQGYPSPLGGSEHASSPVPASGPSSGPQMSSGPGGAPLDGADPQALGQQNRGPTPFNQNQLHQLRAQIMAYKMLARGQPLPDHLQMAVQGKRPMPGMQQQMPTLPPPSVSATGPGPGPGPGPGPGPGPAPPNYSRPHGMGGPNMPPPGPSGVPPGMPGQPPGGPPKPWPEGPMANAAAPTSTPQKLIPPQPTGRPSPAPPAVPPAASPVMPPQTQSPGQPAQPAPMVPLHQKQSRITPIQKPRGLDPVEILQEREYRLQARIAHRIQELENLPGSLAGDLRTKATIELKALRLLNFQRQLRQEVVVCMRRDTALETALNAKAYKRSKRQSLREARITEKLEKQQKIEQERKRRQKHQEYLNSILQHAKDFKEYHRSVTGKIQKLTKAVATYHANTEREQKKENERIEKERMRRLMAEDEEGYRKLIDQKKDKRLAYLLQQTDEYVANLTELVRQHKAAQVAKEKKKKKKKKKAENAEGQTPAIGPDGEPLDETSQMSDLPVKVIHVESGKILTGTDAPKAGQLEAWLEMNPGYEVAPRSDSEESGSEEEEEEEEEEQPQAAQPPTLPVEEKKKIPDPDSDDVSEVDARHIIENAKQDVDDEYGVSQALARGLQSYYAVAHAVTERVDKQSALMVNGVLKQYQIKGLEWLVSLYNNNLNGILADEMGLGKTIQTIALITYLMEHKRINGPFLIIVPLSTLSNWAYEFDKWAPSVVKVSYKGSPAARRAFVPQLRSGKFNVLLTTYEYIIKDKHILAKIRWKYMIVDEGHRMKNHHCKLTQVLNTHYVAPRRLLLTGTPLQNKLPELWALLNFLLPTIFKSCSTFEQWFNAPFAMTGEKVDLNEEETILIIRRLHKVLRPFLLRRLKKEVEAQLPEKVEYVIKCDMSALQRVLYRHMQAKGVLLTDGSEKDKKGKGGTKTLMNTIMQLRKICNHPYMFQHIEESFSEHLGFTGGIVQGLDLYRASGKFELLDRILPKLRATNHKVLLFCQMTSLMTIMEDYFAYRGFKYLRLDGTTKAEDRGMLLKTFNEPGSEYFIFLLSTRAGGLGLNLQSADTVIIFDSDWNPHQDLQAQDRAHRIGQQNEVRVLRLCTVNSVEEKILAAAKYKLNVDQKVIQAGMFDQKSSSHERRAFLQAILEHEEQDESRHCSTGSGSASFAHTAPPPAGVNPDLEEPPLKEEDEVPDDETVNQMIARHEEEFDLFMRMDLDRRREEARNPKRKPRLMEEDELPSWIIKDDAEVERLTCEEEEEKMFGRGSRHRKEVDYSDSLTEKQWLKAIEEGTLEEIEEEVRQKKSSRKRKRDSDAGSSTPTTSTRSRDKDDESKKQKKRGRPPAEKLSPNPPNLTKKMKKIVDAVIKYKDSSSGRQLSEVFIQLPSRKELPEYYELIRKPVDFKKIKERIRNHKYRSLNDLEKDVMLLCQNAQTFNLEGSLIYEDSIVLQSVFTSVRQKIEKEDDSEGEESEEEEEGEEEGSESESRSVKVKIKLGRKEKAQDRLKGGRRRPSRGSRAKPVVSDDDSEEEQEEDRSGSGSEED

Row | Compound | DC50 [1] [nM] | SMARCA2 % Degradation @ 1 μM [1] | DC50 [2] [nM] | inhibition at 1 µM [2] [%]
1 | C[C@H]1CCN(c2cc(-c3ccccc3O)nnc2N)CCN1c1ccc(C#N)c(C#CCN2CC[C@H](F)C2)n1 [Compound P-411, 6-{(S)-4-[3-amino-6-(o-hydroxyphenyl)-4-pyridazinyl]-7-methyl-1,4-diazepan-1-yl}-2-{3-[(S)-3-fluoro-1-pyrrolidinyl]-1-propynyl} nicotinonitrile] | 50 to 500 | ++ (++=30-70%) | 50 to 500 | < 30
2 | C[C@@H]1CCN(c2cc(-c3ccccc3O)nnc2N)CCN1c1ccc(C#N)c(C#CCN2CC(F)(F)C2)n1 [Compound P-412, 6-{(R)-4-[3-amino-6-(0-hydroxyphenyl)-4-pyridazinyl]-7-methyl-1,4-diazepan-1-yl}-2-[3-(3,3-difluoro-1-azetidinyl)-1-propynyl]nicotinonitrile] | 50 to 500 | ++ (++=30-70%) | 50 to 500 | < 30
3 | C[C@H]1CCN(c2cc(-c3ccccc3O)nnc2N)CCN1c1ccc(C#N)c(C#CCN(C)CC(F)(F)F)n1 [Compound P-415, 2-{3-[N-methyl(2,2,2-trifluoroethyl)amino]-1-propynyl}-6-{(S)-4-[3-amino-6-(o-hydroxyphenyl)-4-pyridazinyl]-7-methyl-1,4-diazepan-1-yl}nicotinonitrile] | 50 to 500 | ++ (++=30-70%) | 50 to 500 | 30 to 70
4 | C[C@@H]1CCN(c2cc(-c3ccccc3O)nnc2N)CCN1c1cc(C#CCN(C)C)ncc1F [Compound P-419, 0-{5-[(R)-4-{2-[3-(dimethylamino)-1-propynyl]-5-fluoro-4-pyridy1}-5-methyl-1,4-diazepan-1-yl]-6-amino-3-pyridazinyl}phenol] | 50 to 500 | + (+=<30%) | 50 to 500 | < 30
5 | C[C@@H]1CCN(c2cc(-c3ccccc3O)nnc2N)CCN1c1ccnc(C#CCN2CC(F)(F)C2)c1 [Compound P-421, 0-{5-[(R)-4-{2-[3-(3,3-difluoro-1-azetidinyl)-1-propynyl]-4-pyridyl}-5-methyl-1,4-diazepan-1-yl]-6-amino-3-pyridazinyl}phenol] | 50 to 500 | ++ (++=30-70%) | < 50 | 30 to 70
6 | C[C@@H]1CCN(c2cc(-c3ccccc3O)nnc2N)CCN1c1ccnc(C#CCn2cncn2)c1 [Compound P-424, 0-{5-[(R)-5-methyl-4-{2-[3-(1H-1,2,4-triazol-1-yl)-1-propynyl]-4-pyridyl}-1,4-diazepan-1-yl]-6-amino-3-pyridaziny1} phenol] | 50 to 500 | +++ (+++=>70%) | 50 to 500 | 30 to 70
7 | C[C@@H]1CCN(c2cc(-c3ccccc3O)nnc2N)CCN1c1ccnc(C#CCN2CCCCC2)c1 [Compound P-425, 0-(5-{(R)-5-methyl-4-[2-(3-piperidino-1-propynyl)-4-pyridyl]-1,4-diazepan-1-yl}-6-amino-3-pyridazinyl)phenol] | < 50 | ++ (++=30-70%) | < 50 | 30 to 70

Continued, values first:

Row | DC50 [1] [nM] | SMARCA2 % Degradation @ 1 μM [1] | DC50 [2] [nM] | inhibition at 1 µM [2] [%] | Compound
8 | 50 to 500 | ++ (++=30-70%) | > 5000 |  | C[C@@H]1CCN(c2cc(-c3ccccc3O)nnc2N)CCN1c1ccc(C#N)c(C#CCN2CC(F)(F)[C@H]2C)n1 [Compound P-413, 6-{(R)-4-[3-amino-6-(o-hydroxyphenyl)-4-pyridazinyl]-7-methyl-1,4-diazepan-1-y1}-2-{3-[(R)-3,3-difluoro-2-methyl-1-azetidinyl]-1-propynyl} nicotinonitrile]
9 | 50 to 500 | + (+=<30%) | 50 to 500 | 30 to 70 | C[C@@H]1CCN(c2cc(-c3ccccc3O)nnc2N)CCN1c1cc(C#CCN2CCCCC2)ncc1F [Compound P-414, 0-(5-{(R)-4-[5-fluoro-2-(3-piperidino-1-propynyl)-4-pyridyl]-5-methyl-1,4-diazepan-1-yl}-6-amino-3-pyridazinyl)phenol]
10 | 50 to 500 | +++ (+++=>70%) | 50 to 500 | > 70 | C[C@@H]1CCN(c2cc(-c3ccccc3O)nnc2N)CCN1c1ccc(C#N)c(C#CCN2CCC(F)(F)CC2)n1 [Compound P-416, 6-{(R)-4-[3-amino-6-(o-hydroxyphenyl)-4-pyridazinyl]-7-methyl-1,4-diazepan-1-yl}-2-[3-(4,4-difluoro-1-piperidyl)-1-propynyl]nicotinonitrile]
11 | 50 to 500 | ++ (++=30-70%) | 50 to 500 | 30 to 70 | C[C@@H]1CCN(c2cc(-c3ccccc3O)nnc2N)CCN1c1cc(C#CCn2ccnc2)ncc1F [Compound P-417, 0-{5-[(R)-4-{5-fluoro-2-[3-(1-imidazolyl)-1-propynyl]-4-pyridyl}-5-methyl-1,4-diazepan-1-yl]-6-amino-3-pyridazinyl} phenol]
12 | < 50 | +++ (+++=>70%) | < 50 | 30 to 70 | CC1CC(C)N1CC#Cc1cc(N2CCN(c3cc(-c4ccccc4O)nnc3N)CC[C@H]2C)ccn1 (stereo partly drawn) [Compound P-418, 0-{5-[(R)-4-{2-[3-(2,4-dimethyl-1-azetidinyl)-1-propynyl]-4-pyridy1}-5-methyl-1,4-diazepan-1-yl]-6-amino-3-pyridazinyl}phenol]
13 | < 50 | +++ (+++=>70%) | < 50 | 30 to 70 | C[C@@H]1CCN1CC#Cc1cc(N2CCN(c3cc(-c4ccccc4O)nnc3N)CC[C@H]2C)ccn1 [Compound P-420, 0-{5-[(R)-4-(2-{3-[(R)-2-methyl-1-azetidinyl]-1-propynyl}-4-pyridyl)-5-methyl-1,4-diazepan-1-yl]-6-amino-3-pyridaziny1}phenol]
14 | 50 to 500 | + (+=<30%) | < 50 |  | C[C@@H]1CCN(c2cc(-c3ccccc3O)nnc2N)CCN1c1ccnc(C#CCN2[C@H](C)COC[C@@H]2C)c1 [Compound P-422, 0-{5-[(R)-4-(2-{3-[(3R,5S)-3,5-dimethyl-4-morpholiny1]-1-propynyl}-4-pyridyl)-5-methyl-1,4-diazepan-1-yl]-6-amino-3-pyridazinyl}phenol]
15 | < 50 | ++ (++=30-70%) | < 50 | 30 to 70 | C[C@@H]1CCN(c2cc(-c3ccccc3O)nnc2N)CCN1c1ccc(C#N)c(C#CCN(C)C)n1 [Compound P-423, 6-{(R)-4-[3-amino-6-(0-hydroxyphenyl)-4-pyridaziny1]-7-methyl-1,4-diazepan-1-yl}-2-[3-(dimethylamino)-1-propynyl]nicotinonitrile]
16 | 50 to 500 | ++ (++=30-70%) | 50 to 500 | 30 to 70 | C[C@@H]1CCN(c2cc(-c3ccccc3O)nnc2N)CCN1c1ccnc(C#CCN2CCOCC2)c1 [Compound P-426, 0-(5-{(R)-5-methyl-4-[2-(3-morpholino-1-propynyl)-4-pyridyl]-1,4-diazepan-1-yl}-6-amino-3-pyridazinyl)phenol]
